Assay results as given in patent US12415786B2, “Substituted 2-heteroarylaminobenzenes and the salts thereof and their use as herbicidal agents” (Bayer Aktiengesellschaft, priority 2019, dated 2025).

Tests used:
Type in all cases: in vivo
Amaranthus retroflexus [1] = assay: Herbicidal post-emergence action (greenhouse pots), AMARE; details: 1280 g/ha, visual rating about 3 weeks after treatment vs untreated controls
Source text: (§1) In the examples and tables below, the following abbreviations are used: • Undesired Plants/Weeds: • ABUTH: Abutilon theophrasti • AGSTE: Agrostis tenuis • AMARE Amaranthus retroflexus • ECHCG: Echinochloa crus-galli • LOLRI: Lolium rigidum • MATIN: Matricaria inodora • POAAN: Poa annua • SETVI: Setaria viridis • STEME: Stellaria media A. Herbicidal Early Post-Emergence Action Seeds of mono- and dicotyledonous weed plants were placed in plastic pots in sandy loam soil (doubly sown with in each case one species of mono- or dicotyledonous weed plants per pot), covered with soil and cultivated in a greenhouse under controlled growth conditions. 2 to 3 weeks after sowing, the test plants were treated at the one-leaf stage. The compounds of the invention, formulated in the form of wettable powders (WP) or as emulsion concentrates (EC), were applied onto the green parts of the plants as aqueous suspension or emulsion with addition of 0.5% additive at a water application rate of 600 liters per hectare (converted). After the test plants had been kept in the greenhouse under optimum growth conditions for about 3 weeks, the activity of the preparations was rated visually in comparison to untreated controls. For example, 100% activity=the plants have died, 0% activity=like untreated control plants. Tables B1-B8 below show the effects of selected compounds of the general formula (I) according to Table 1 above on various harmful plants and an application rate corresponding to 1280 g/ha, which were obtained by the experimental procedure mentioned above.

Poa annua [2] = assay: Herbicidal early post-emergence action (96-well microtiter plates), POAAN; details: 1900 g/ha, scored 9 to 12 days after treatment, 100% = plants have died, 0% = like untreated control plants
Source text: (§2) In the examples and tables below, the following abbreviations are used: • Undesired Plants/Weeds: • ABUTH: Abutilon theophrasti • AGSTE: Agrostis tenuis • AMARE Amaranthus retroflexus • ECHCG: Echinochloa crus-galli • LOLRI: Lolium rigidum • MATIN: Matricaria inodora • POAAN: Poa annua • SETVI: Setaria viridis • STEME: Stellaria media A. Herbicidal Early Post-Emergence Action Seeds of monocotyledonous and dicotyledonous weed plants were placed in 96-well microtiter plates in quartz sand and grown in a climatized chamber under controlled growth conditions. 5 to 7 days after sowing, the test plants were treated at the cotyledon stage. The compounds according to the invention, formulated in the form of emulsion concentrates (EC), were applied with a water application rate of the equivalent of 2200 liters per hectare. After the test plants had been left to stand in the climatized chamber for 9 to 12 days under optimum growth conditions, the effect of the preparations was scored visually in comparison to untreated controls. Here, for example, 100% activity=the plants have died, 0% activity=like untreated control plants. Tables A1 to A2 below show the effects of selected compounds of the general formula (I) according to Table 1 above on various harmful plants and an application rate corresponding to 1900 g/ha, which were obtained by the experimental procedure mentioned above.

Setaria viridis = assay: Herbicidal pre-emergence action (greenhouse pots), SETVI; details: 1280 g/ha, visual scoring after about 3 weeks vs untreated controls
Source text: (§3) In the examples and tables below, the following abbreviations are used: • Undesired Plants/Weeds: • ABUTH: Abutilon theophrasti • AGSTE: Agrostis tenuis • AMARE Amaranthus retroflexus • ECHCG: Echinochloa crus-galli • LOLRI: Lolium rigidum • MATIN: Matricaria inodora • POAAN: Poa annua • SETVI: Setaria viridis • STEME: Stellaria media A. Herbicidal Early Post-Emergence Action Seeds of mono- and dicotyledonous weed plants were placed in plastic pots in sandy loam soil (doubly sown with one species each of mono- or dicotyledonous weed plants per pot) and covered with soil. The compounds of the invention, formulated in the form of wettable powders (WP) or as emulsion concentrates (EC), were then applied onto the surface of the covering soil as aqueous suspension or emulsion with addition of 0.5% additive at a water application rate of 600 liters per hectare (converted). After the treatment, the pots were placed in a greenhouse and kept under good growth conditions for the test plants. After about 3 weeks, the effect of the preparations was scored visually in comparison with untreated controls as percentages. For example, 100% activity=the plants have died, 0% activity=like untreated control plants. Tables C1-C8 below show the effects of selected compounds of the general formula (I) according to Table 1 above on various harmful plants and an application rate corresponding to 1280 g/ha, which were obtained by the experimental procedure mentioned above.

Abutilon theophrasti = assay: Herbicidal post-emergence action (greenhouse pots), ABUTH; details: 1280 g/ha, visual rating about 3 weeks after treatment vs untreated controls
Source text: as §1

Stellaria media [3] = assay: Herbicidal pre-emergence action (greenhouse pots), STEME; details: 1280 g/ha, visual scoring after about 3 weeks vs untreated controls
Source text: as §3

Stellaria media [4] = assay: Herbicidal post-emergence action (greenhouse pots), STEME; details: 1280 g/ha, visual rating about 3 weeks after treatment vs untreated controls
Source text: as §1

Amaranthus retroflexus [5] = assay: Herbicidal pre-emergence action (greenhouse pots), AMARE; details: 1280 g/ha, visual scoring after about 3 weeks vs untreated controls
Source text: as §3

Agrostis tenuis = assay: Herbicidal early post-emergence action (96-well microtiter plates), AGSTE; details: 1900 g/ha, scored 9 to 12 days after treatment, 100% = plants have died, 0% = like untreated control plants
Source text: as §2

Matricaria inodora = assay: Herbicidal pre-emergence action (greenhouse pots), MATIN; details: 1280 g/ha, visual scoring after about 3 weeks vs untreated controls
Source text: as §3

Poa annua [6] = assay: Herbicidal pre-emergence action (greenhouse pots), POAAN; details: 1280 g/ha, visual scoring after about 3 weeks vs untreated controls
Source text: as §3

Echinochloa crus-galli = assay: Herbicidal post-emergence action (greenhouse pots), ECHCG; details: 1280 g/ha, rated after about 3 weeks, 100% = plants have died, 0% = like untreated control plants
Source text: as §1

Poa annua [7] = assay: Herbicidal post-emergence action (greenhouse pots), POAAN; details: 1280 g/ha, visual rating about 3 weeks after treatment vs untreated controls
Source text: as §1

SMILES | herbicidal activity AMARE (Amaranthus retroflexus [1]) [%] | POAAN (herbicidal activity, scored visually in comparison to untreated controls) (Poa annua [2]) [%] | herbicidal activity SETVI (Setaria viridis) [%] | herbicidal activity ABUTH (Abutilon theophrasti) [%] | herbicidal activity STEME (Stellaria media [3]) [%] | herbicidal activity STEME (Stellaria media [4]) [%] | herbicidal activity AMARE (Amaranthus retroflexus [5]) [%] | AGSTE (herbicidal activity, scored visually in comparison to untreated controls) (Agrostis tenuis) [%] | herbicidal activity MATIN (Matricaria inodora) [%] | herbicidal activity POAAN (Poa annua [6]) [%] | ECHCG (herbicidal activity, rated visually in comparison to untreated controls) (Echinochloa crus-galli) [%] | herbicidal activity POAAN (Poa annua [7]) [%]
COc1cnc(Nc2cccc(C#N)c2Oc2ccc(F)cc2)nc1 [Example 1-312] | 100 | 100 | 90 | 100 | 100 | 100 | 100 | 100 | 100 | 100 |  | 
N#Cc1cccc(Nc2ncc(OC(F)F)cn2)c1Oc1ccc(F)cc1 [Example 1-314] | 100 | 80 | 100 | 90 |  | 100 |  | 100 |  |  |  | 
Fc1ccc(Oc2ccccc2Nc2ncc(Cl)cn2)cc1 [Example 1-337] | 90 | 100 |  | 90 |  |  | 90 | 100 |  | 100 | 90 | 
Clc1cnc(Nc2cccc(Cl)c2Oc2ccccc2)nc1 [Example 1-340] | 100 | 100 | 100 | 90 | 90 | 100 | 100 | 80 |  | 100 |  | 
O=[N+]([O-])c1cccc(Nc2ncc(Cl)cn2)c1Oc1ccc(F)cc1 [Example 1-350] | 100 | 100 |  |  |  |  | 100 | 80 | 100 | 100 |  | 100
CC(=O)N(C)c1cccc(Nc2ncc(Cl)cn2)c1Oc1ccc(F)cc1 [Example 1-369] | 100 | 80 | 100 |  | 100 |  | 100 | 80 |  |  |  | 100
Fc1ccc(Oc2c(I)cccc2Nc2ncc(Cl)cn2)cc1 [Example 1-372] |  | 100 | 100 |  |  | 90 | 100 | 100 |  |  |  | 100
Clc1cnc(Nc2ccccc2Oc2cccnc2)nc1 [Example 3-49] | 100 |  |  | 90 |  |  |  | 80 |  |  |  | 
